# Assays:
# Test in all cases: biochemical
# Parameters in all cases: Eurofins recombinant human kinase profiling, remaining kinase activity as % of control, 10 uM ATP
# Details in all cases: ATP 10 uM; read-out: %Ctrl@10 μM
# GSK3α(h) = target: T1, GSK3α(h) (Homo sapiens, UniProt P49840)
# T1 construct: gene GSK3A
# In short: (§1)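 Activity measured in a commercial panel of 401 recombinant human protein kinases run as a kinase profiling service.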
# PKG1α(h) = target: T2, PKG1α(h) (Homo sapiens, UniProt Q13976)
# T2 construct: gene PRKG1; isoform 1alpha
# In short: as §1
# VRK1(h) = VRK1(h) (Homo sapiens, UniProt Q99986)
# In short: as §1
# c-RAF(h) = target: T3, c-RAF(h) (Homo sapiens, UniProt P04049)
# T3 construct: gene RAF1
# In short: as §1
# Wee1B(h) = target: T4, Wee1B(h) (Homo sapiens, UniProt P0C1S8)
# T4 construct: gene WEE2
# In short: as §1
# Flt1(h) = Flt1(h) (Homo sapiens, UniProt P17948)
# In short: as §1
# GRK3(h) = GRK3(h) (Homo sapiens, UniProt P35626)
# In short: as §1
# TAF1L(h) = TAF1L(h) (Homo sapiens, UniProt Q8IZX4)
# In short: as §1
# Abl (Q252H) (h) = target: T5, Abl (Q252H) (h) (Homo sapiens, UniProt P00519, Q252H)
# T5 construct: gene ABL1
# In short: as §1
# ACTR2(h) = target: T6, ACTR2(h) (Homo sapiens, UniProt P27037)
# T6 construct: gene ACVR2A
# In short: as §1
# PDGFRβ(h) = target: T7, PDGFRβ(h) (Homo sapiens, UniProt P09619)
# T7 construct: gene PDGFRB
# In short: as §1
# Axl(h) = Axl(h) (Homo sapiens, UniProt P30530)
# In short: as §1
# CaMKIIβ(h) = target: T8, CaMKIIβ(h) (Homo sapiens, UniProt Q13554)
# T8 construct: gene CAMK2B
# In short: as §1
# IRR(h) = target: T9, IRR(h) (Homo sapiens, UniProt P14616)
# T9 construct: gene INSRR
# In short: as §1
# IGF-1R(h) = target: T10, IGF-1R(h) (Homo sapiens, UniProt P08069)
# T10 construct: gene IGF1R
# In short: as §1
# DCAMKL3(h) = target: T11, DCAMKL3(h) (Homo sapiens, UniProt Q9C098)
# T11 construct: gene DCLK3
# In short: as §1
# ROCK-II(h) = target: T12, ROCK-II(h) (Homo sapiens, UniProt O75116)
# T12 construct: gene ROCK2
# In short: as §1
# MRCKβ(h) = target: T13, MRCKβ(h) (Homo sapiens, UniProt Q9Y5S2)
# T13 construct: gene CDC42BPB
# In short: as §1
# CLK2(h) = CLK2(h) (Homo sapiens, UniProt P49760)
# In short: as §1
# Plk4(h) = Plk4(h) (Homo sapiens, UniProt O00444)
# In short: as §1
# AAK1(h) = AAK1(h) (Homo sapiens, UniProt Q2M2I8)
# In short: as §1
# Rsk2(h) = target: T14, Rsk2(h) (Homo sapiens, UniProt P51812)
# T14 construct: gene RPS6KA3
# In short: as §1
# SLK(h) = SLK(h) (Homo sapiens, UniProt Q9H2G2)
# In short: as §1
# T6 sequence (P27037 whole entry): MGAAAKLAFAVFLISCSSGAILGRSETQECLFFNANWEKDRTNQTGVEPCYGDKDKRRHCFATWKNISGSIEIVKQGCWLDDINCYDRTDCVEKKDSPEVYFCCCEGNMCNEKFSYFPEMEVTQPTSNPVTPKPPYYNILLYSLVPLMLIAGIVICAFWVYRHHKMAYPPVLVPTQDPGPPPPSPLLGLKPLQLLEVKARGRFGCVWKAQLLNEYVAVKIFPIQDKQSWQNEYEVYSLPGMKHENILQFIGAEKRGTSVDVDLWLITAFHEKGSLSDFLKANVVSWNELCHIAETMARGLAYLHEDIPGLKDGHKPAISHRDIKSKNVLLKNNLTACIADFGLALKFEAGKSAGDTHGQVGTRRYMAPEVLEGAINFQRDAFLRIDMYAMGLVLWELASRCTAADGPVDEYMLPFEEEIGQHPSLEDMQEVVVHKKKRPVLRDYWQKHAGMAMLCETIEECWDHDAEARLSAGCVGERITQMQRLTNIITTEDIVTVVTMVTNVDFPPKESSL
# T13 sequence (Q9Y5S2 whole entry): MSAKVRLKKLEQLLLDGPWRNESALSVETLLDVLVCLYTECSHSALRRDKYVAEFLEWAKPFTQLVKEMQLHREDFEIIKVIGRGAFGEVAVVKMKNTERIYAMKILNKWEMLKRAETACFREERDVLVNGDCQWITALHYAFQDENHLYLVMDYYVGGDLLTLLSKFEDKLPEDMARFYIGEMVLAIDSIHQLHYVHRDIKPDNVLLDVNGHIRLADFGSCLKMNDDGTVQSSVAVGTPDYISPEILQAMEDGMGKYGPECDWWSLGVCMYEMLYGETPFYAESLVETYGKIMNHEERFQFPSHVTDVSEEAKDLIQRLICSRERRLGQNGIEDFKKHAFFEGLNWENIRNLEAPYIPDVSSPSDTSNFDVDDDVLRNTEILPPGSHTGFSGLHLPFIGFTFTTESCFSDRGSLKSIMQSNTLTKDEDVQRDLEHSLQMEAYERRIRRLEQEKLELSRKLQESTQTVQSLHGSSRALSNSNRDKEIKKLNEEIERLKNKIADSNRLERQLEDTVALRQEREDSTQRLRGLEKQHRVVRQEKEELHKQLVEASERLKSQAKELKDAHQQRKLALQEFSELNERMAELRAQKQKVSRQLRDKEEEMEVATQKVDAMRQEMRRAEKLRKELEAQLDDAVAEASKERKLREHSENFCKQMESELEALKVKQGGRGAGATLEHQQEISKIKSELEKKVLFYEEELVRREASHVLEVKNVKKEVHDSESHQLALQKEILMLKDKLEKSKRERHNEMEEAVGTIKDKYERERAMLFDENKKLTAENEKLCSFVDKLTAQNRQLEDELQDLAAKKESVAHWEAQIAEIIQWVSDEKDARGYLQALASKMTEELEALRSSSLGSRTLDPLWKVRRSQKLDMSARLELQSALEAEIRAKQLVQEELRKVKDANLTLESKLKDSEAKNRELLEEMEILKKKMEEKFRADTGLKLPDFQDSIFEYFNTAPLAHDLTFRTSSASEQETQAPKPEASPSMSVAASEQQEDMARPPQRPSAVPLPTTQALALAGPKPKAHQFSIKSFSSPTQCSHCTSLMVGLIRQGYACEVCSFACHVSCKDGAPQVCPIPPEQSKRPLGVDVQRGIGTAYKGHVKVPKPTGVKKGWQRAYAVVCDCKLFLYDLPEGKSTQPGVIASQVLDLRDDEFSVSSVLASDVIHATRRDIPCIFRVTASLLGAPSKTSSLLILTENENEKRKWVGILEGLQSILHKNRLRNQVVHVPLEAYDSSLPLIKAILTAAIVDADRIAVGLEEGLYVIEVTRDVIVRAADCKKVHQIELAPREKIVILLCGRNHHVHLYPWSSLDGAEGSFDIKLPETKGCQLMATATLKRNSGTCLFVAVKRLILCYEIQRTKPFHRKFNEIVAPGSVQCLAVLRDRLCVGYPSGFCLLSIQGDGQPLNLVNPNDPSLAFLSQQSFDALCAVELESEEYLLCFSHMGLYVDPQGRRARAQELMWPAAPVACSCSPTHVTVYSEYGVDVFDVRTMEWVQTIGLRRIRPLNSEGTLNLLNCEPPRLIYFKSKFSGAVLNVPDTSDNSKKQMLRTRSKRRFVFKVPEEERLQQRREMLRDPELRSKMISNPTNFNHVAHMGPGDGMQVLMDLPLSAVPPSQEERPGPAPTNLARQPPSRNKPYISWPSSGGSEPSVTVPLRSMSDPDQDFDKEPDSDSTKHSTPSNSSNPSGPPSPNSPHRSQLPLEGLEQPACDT
# Chain of VRK1(h) (Q99986 whole entry): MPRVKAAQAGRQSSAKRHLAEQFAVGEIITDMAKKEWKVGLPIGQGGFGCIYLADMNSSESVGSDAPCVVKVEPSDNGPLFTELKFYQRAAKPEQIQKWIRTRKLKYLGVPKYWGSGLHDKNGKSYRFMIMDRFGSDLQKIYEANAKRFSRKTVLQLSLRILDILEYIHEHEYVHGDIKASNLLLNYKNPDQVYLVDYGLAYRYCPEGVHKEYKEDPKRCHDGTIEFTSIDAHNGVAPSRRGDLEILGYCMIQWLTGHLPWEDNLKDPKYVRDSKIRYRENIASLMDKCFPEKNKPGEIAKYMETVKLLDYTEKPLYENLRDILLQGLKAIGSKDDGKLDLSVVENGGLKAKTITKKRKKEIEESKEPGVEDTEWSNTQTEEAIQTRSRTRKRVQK
# T12 sequence (O75116 whole entry): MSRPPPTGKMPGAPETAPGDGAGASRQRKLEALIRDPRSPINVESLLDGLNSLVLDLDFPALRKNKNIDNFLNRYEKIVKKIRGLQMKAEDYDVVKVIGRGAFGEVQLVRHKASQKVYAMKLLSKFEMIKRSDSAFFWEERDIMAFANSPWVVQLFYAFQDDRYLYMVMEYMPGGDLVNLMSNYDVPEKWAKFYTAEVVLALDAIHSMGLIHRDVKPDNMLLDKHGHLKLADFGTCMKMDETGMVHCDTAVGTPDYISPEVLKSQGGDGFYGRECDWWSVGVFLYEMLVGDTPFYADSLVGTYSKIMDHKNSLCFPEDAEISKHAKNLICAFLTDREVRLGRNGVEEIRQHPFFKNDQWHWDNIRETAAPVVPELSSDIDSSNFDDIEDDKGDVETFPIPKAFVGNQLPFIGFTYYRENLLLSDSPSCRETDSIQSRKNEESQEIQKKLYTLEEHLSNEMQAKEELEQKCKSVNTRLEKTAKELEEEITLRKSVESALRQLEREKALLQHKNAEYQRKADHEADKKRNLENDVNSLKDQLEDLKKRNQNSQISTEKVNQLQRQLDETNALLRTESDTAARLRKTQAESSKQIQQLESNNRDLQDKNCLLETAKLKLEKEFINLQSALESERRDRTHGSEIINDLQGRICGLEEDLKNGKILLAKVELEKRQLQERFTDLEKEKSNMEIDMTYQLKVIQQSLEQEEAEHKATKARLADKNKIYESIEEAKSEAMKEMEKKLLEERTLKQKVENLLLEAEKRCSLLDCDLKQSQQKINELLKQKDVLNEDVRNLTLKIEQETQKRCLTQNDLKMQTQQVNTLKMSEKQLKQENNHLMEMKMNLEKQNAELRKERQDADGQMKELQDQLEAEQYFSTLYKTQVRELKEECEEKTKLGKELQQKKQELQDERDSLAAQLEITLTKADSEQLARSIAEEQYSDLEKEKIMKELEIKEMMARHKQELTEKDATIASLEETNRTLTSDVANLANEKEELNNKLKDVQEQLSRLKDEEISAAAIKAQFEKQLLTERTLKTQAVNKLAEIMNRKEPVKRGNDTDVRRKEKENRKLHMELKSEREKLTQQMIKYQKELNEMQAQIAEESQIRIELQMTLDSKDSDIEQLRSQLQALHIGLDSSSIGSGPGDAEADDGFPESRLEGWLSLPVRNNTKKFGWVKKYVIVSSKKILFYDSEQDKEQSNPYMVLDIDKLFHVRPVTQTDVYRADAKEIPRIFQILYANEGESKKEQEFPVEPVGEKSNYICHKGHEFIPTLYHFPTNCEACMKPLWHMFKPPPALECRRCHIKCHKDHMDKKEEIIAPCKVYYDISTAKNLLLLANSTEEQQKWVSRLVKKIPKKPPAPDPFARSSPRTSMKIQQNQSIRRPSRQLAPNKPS
# T2 sequence (Q13976 whole entry, canonical isoform): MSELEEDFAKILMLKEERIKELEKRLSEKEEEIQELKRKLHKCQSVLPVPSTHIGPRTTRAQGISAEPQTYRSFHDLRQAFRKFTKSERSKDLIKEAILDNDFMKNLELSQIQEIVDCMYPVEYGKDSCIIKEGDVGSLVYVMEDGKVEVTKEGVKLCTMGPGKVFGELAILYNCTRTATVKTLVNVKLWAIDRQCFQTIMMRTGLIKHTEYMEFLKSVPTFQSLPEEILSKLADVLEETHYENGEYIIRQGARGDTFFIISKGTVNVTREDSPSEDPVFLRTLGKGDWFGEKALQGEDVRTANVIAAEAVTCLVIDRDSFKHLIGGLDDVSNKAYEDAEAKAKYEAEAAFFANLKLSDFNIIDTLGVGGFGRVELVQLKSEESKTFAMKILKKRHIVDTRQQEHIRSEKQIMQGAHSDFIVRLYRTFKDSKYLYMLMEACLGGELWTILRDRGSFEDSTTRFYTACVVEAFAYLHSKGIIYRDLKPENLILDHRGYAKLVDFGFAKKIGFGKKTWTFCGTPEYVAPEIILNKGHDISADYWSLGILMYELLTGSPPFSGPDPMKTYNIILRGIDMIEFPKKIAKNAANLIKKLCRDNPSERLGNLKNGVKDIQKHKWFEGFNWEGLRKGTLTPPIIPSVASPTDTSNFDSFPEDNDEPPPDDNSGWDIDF
smiles,measurement,setting,value
C1=C(c2nc(-c3cnn(C4CCNCC4)c3)cn3cc(-c4ccccc4)nc23)CCOC1 [YL-939],remaining activity at 10 µM,GSK3α(h),119%
same,remaining activity at 10 µM,PKG1α(h),90%
same,remaining activity at 10 µM,VRK1(h),87%
same,remaining activity at 10 µM,c-RAF(h),76%
same,remaining activity at 10 µM,Wee1B(h),92%
same,remaining activity at 10 µM,Flt1(h),65%
same,remaining activity at 10 µM,GRK3(h),92%
same,remaining activity at 10 µM,TAF1L(h),84%
same,remaining activity at 10 µM,Abl (Q252H) (h),122%
same,remaining activity at 10 µM,ACTR2(h),94%
same,remaining activity at 10 µM,PDGFRβ(h),113%
same,remaining activity at 10 µM,Axl(h),84%
same,remaining activity at 10 µM,CaMKIIβ(h),70%
same,remaining activity at 10 µM,IRR(h),74%
same,remaining activity at 10 µM,IGF-1R(h),82%
same,remaining activity at 10 µM,DCAMKL3(h),66%
same,remaining activity at 10 µM,ROCK-II(h),89%
same,remaining activity at 10 µM,MRCKβ(h),84%
same,remaining activity at 10 µM,CLK2(h),71%
same,remaining activity at 10 µM,Plk4(h),88%
same,remaining activity at 10 µM,AAK1(h),68%
same,remaining activity at 10 µM,Rsk2(h),81%
same,remaining activity at 10 µM,SLK(h),70%
